Reference: PubChem BioAssay AID2060603 (Molecular Pharmacology Branch, DTP, NCI, 2025)

Test system: 422866-222-R5-J1-PDC spheroid viability
Assay: Anticancer human tumor 422866-222-R5-J1-PDC patient-derived pancreatic adenocarcinoma cell line growth inhibition [CLK]
Details: spheroids with HUVEC and MSC; for IC50: curve of first compound; for viability, T/C: stronger effect = lower value
Outline: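 Patient-derived tumor cells grown as complex spheroids with HUVEC endothelial cells and mesenchymal stem cells, treated with drug combinations. Concentrations descend in half-log steps from near clinical Cmax, or from 10 microM if Cmax unknown.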

[1] = second compound 0.0316 µM, first compound 0.0316 µM
[2] = second compound 0.0316 µM, first compound 0.1 µM
[3] = second compound 0.0316 µM, first compound 0.316 µM
[4] = second compound 0.0316 µM, first compound 1 µM
[5] = second compound 0.0316 µM, first compound 3.16 µM
[6] = second compound 0.0316 µM, first compound 10 µM
[7] = second compound 0.1 µM, first compound 0.0316 µM
[8] = second compound 0.1 µM, first compound 0.1 µM
[9] = second compound 0.1 µM, first compound 0.316 µM
[10] = second compound 0.1 µM, first compound 1 µM
[11] = second compound 0.1 µM, first compound 3.16 µM
[12] = second compound 0.1 µM, first compound 10 µM
[13] = second compound 0.316 µM, first compound 0.0316 µM
[14] = second compound 0.316 µM, first compound 0.1 µM
[15] = second compound 0.316 µM, first compound 0.316 µM
[16] = second compound 0.316 µM, first compound 1 µM
[17] = second compound 0.316 µM, first compound 3.16 µM
[18] = second compound 0.316 µM, first compound 10 µM
[19] = second compound 1 µM, first compound 0.0316 µM
[20] = second compound 1 µM, first compound 0.1 µM
[21] = second compound 1 µM, first compound 0.316 µM
[22] = second compound 1 µM, first compound 1 µM
[23] = second compound 1 µM, first compound 3.16 µM
[24] = second compound 1 µM, first compound 10 µM
[25] = second compound 3.16 µM, first compound 0.0316 µM
[26] = second compound 3.16 µM, first compound 0.1 µM
[27] = second compound 3.16 µM, first compound 0.316 µM
[28] = second compound 3.16 µM, first compound 1 µM
[29] = second compound 3.16 µM, first compound 3.16 µM
[30] = second compound 3.16 µM, first compound 10 µM
[31] = second compound 10 µM, first compound 0.0316 µM
[32] = second compound 10 µM, first compound 0.1 µM
[33] = second compound 10 µM, first compound 0.316 µM
[34] = second compound 10 µM, first compound 1 µM
[35] = second compound 10 µM, first compound 3.16 µM
[36] = second compound 10 µM, first compound 10 µM
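Also: spheroids exposed to agents for seven days before readout.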

`COc1ccc([C@@H](O)c2cc(-c3ncnc4cc(N5CCOCC5)ccc34)c(F)cc2Cl)nn1` + CNC(=O)c1ccc(Nc2nc(OC3CCCC3)c3c(-c4ccc5nc(C)oc5c4)c[nH]c3n2)c(OC)c1 gave an IC50 (second compound 0.0316 µM) of 2890 nM, an IC50 (second compound 0.1 µM) of 2710 nM and an IC50 (second compound 0.316 µM) of 775 nM. It also gave an IC50 (second compound 1 µM) of 617 nM, an IC50 (second compound 3.16 µM) of 548 nM and an IC50 (second compound 10 µM) of 1300 nM. For the same compound, the viability, T/C [1] was 113%, the viability, T/C [2] was 91.6% and the viability, T/C [3] was 77.5%. For the same compound, the viability, T/C [4] was 70.2%, the viability, T/C [5] was 45.1% and the viability, T/C [6] was 35.2%. The viability, T/C [7] was 106%, the viability, T/C [8] was 81.9% and the viability, T/C [9] was 84.1%. For the same compound, the viability, T/C [10] was 62.5%, the viability, T/C [11] was 45.4% and the viability, T/C [12] was 34.5%. It also gave a viability, T/C [13] of 69.7%, a viability, T/C [14] of 63.1% and a viability, T/C [15] of 73.1%. For the same compound, the viability, T/C [16] was 44.7%, the viability, T/C [17] was 44.4% and the viability, T/C [18] was 32.9%. The viability, T/C [19] was 63.3%, the viability, T/C [20] was 58% and the viability, T/C [21] was 57%. It also gave a viability, T/C [22] of 45.4%, a viability, T/C [23] of 38.3% and a viability, T/C [24] of 37.9%. The viability, T/C [25] was 54.5%, the viability, T/C [26] was 66.2% and the viability, T/C [27] was 43.5%. It also gave a viability, T/C [28] of 47.8%, a viability, T/C [29] of 45.9% and a viability, T/C [30] of 37.7%. For the same compound, the viability, T/C [31] was 48.5%, the viability, T/C [32] was 63.6% and the viability, T/C [33] was 56.8%. It also gave a viability, T/C [34] of 44.1%, a viability, T/C [35] of 48.9% and a viability, T/C [36] of 36.6%.

In the case of `COc1cccc2c1C(=O)c1c(O)c3c(c(O)c1C2=O)CC(O)(C(=O)CO)CC3OC1CC(N)C(O)C(C)O1` (centres undefined) + CNC(=O)c1ccc(Nc2nc(OC3CCCC3)c3c(-c4ccc5nc(C)oc5c4)c[nH]c3n2)c(OC)c1, the IC50 (second compound 0.0316 µM) is reported as 160 nM, the IC50 (second compound 0.1 µM) is reported as 106 nM and the IC50 (second compound 0.316 µM) is reported as 85.5 nM. It also gave an IC50 (second compound 1 µM) of 79.1 nM, an IC50 (second compound 3.16 µM) of 109 nM and an IC50 (second compound 10 µM) of under 31.6 nM. For the same compound, the viability, T/C [1] was 65%, the viability, T/C [2] was 60.4% and the viability, T/C [3] was 34.8%. The viability, T/C [4] was 28.6%, the viability, T/C [5] was 30.4% and the viability, T/C [6] was 27.8%. The viability, T/C [7] was 66.2%, the viability, T/C [8] was 50.3% and the viability, T/C [9] was 37.8%. For the same compound, the viability, T/C [10] was 28.2%, the viability, T/C [11] was 30.9% and the viability, T/C [12] was 28.6%. It also gave a viability, T/C [13] of 67.6%, a viability, T/C [14] of 47.1% and a viability, T/C [15] of 38.7%. The viability, T/C [16] was 36.6%, the viability, T/C [17] was 35.2% and the viability, T/C [18] was 33.4%. For the same compound, the viability, T/C [19] was 60.1%, the viability, T/C [20] was 47.5% and the viability, T/C [21] was 31.1%. The viability, T/C [22] was 32.2%, the viability, T/C [23] was 31.2% and the viability, T/C [24] was 30.5%. The viability, T/C [25] was 48.6%, the viability, T/C [26] was 53.3% and the viability, T/C [27] was 39%. It also gave a viability, T/C [28] of 30.1%, a viability, T/C [29] of 34.3% and a viability, T/C [30] of 35.9%. For the same compound, the viability, T/C [31] was 48.9%, the viability, T/C [32] was 41.1% and the viability, T/C [33] was 35.2%. It also gave a viability, T/C [34] of 31.1%, a viability, T/C [35] of 32% and a viability, T/C [36] of 48.9%.
